According to patent publication US5691135A, “Immunoglobulin superantigen binding to gp 120 from HIV” (The Regents of the University of California, priority 1994, dated 1997):

What was measured:
[1] = system: monoclonal IgM HEA binding to gp120; set-up: species or system human; conditions: for RESIDUAL BINDING TO gp120 (% OF CONTROL), 1.0 μM PEPTIDE / RESIDUAL BINDING TO gp120 (% OF CONTROL), 10.0 μM PEPTIDE: gp120 elisa
[2] = system: polyclonal serum IgM binding to gp120 from HIV-1SF2; set-up: species or system human; conditions: for RESIDUAL BINDING TO gp120 (% OF CONTROL), 1.0 μM PEPTIDE / RESIDUAL BINDING TO gp120 (% OF CONTROL), 10.0 μM PEPTIDE: gp120 elisa
[3] = system: monoclonal IgM VNG binding to gp120; set-up: species or system human; conditions: for RESIDUAL BINDING TO gp120 (% OF CONTROL), 1.0 μM PEPTIDE / RESIDUAL BINDING TO gp120 (% OF CONTROL), 10.0 μM PEPTIDE: gp120 elisa
[4] = system: VH3 IgM binding to gp120
[5] = system: monoclonal IgM RSJ binding to gp120; set-up: species or system human; conditions: gp120 elisa
[6] = system: monoclonal IgM VIN binding to gp120; set-up: species or system human; conditions: gp120 elisa
[7] = system: panel of Ig-SAg binding antibodies (polyclonal IgM plus four monoclonal IgM) binding to gp120; set-up: species or system human

Sequence	RESIDUAL BINDING TO gp120 (% OF CONTROL), 1.0 μM PEPTIDE [5] [% OF CONTROL]	RESIDUAL BINDING TO gp120 (% OF CONTROL), 1.0 μM PEPTIDE [6] [% OF CONTROL]	RESIDUAL BINDING TO gp120 (% OF CONTROL), 10.0 μM PEPTIDE [6] [% OF CONTROL]	RESIDUAL BINDING TO gp120 (% OF CONTROL), 1.0 μM PEPTIDE [2] [% OF CONTROL]	RESIDUAL BINDING TO gp120 (% OF CONTROL), 10.0 μM PEPTIDE [2] [% OF CONTROL]	RESIDUAL BINDING TO gp120 (% OF CONTROL), 1.0 μM PEPTIDE [1] [% OF CONTROL]	RESIDUAL BINDING TO gp120 (% OF CONTROL), 10.0 μM PEPTIDE [1] [% OF CONTROL]	also measured
CRIKQIIMWQKVGKAMYAPPISG [Peptide 1589, gp160 peptide 418-441, HIV-1 IIIB]								inhibition of HEA binding to gp120 [1]: inhibited the binding of HEA to gp120
CTRPNYNKRKRIHIGPGRAF [Peptide 1985, gp160 peptide 301-320, HIV-1 MN]								inhibition of polyclonal serum IgM binding to gp120 [2]: does not inhibit; binding of VNG to peptide [3]: bound; RESIDUAL BINDING TO gp120 (% OF CONTROL), 1.0 μM PEPTIDE [3]: 27.4 ± 0.5 % OF CONTROL; RESIDUAL BINDING TO gp120 (% OF CONTROL), 10.0 μM PEPTIDE [3]: 24.2 ± 0.1 % OF CONTROL
DTEVHNVWATQACVPTDPNP [Peptide 1925, gp160 peptide 61-81, HIV-1 MN]								inhibition of gp120 binding to VH3 IgM [4]: neither actin nor the 1925 peptide inhibited
EGTIKGGEMKNCSFNITTSI [Peptide 1934, gp160 peptide 151-170, HIV-1 MN]	13.9 ± 0.3							
GKAMYAPPIEGQIRCSSNIT [Peptide 2008, gp160 peptide 431-450, HIV-1 MN]		108 ± 4.3	15.7 ± 1.7					
KGSCKNVSTVQCTHGIRPVV [Peptide 1960, gp160 peptide 241-260, HIV-1 MN]	10.2 ± 2.4	6.2 ± 1.3	5.8 ± 1.3	19.2 ± 1.0	11.7 ± 2.3	11.3 ± 2.5	6.2 ± 3.0	RESIDUAL BINDING TO gp120 (% OF CONTROL), 10.0 μM PEPTIDE [5]: 4.2 ± 5.0 % OF CONTROL; RESIDUAL BINDING TO gp120 (% OF CONTROL), 1.0 μM PEPTIDE [3]: 58.1 ± 0 % OF CONTROL; RESIDUAL BINDING TO gp120 (% OF CONTROL), 10.0 μM PEPTIDE [3]: 32.3 ± 7.1 % OF CONTROL; peptide binding across all Ig tested [7]: bound to all Ig tested
KQIINMWQEVGKAMYAPPIE [Peptide 2007, gp160 peptide 421-440, HIV-1 MN]	24.1 ± 0.1	69.8 ± 4.2	21.2 ± 1.2	59.1 ± 0.8	19.8 ± 5.4	56.2 ± 4.7	10.3 ± 0.5	RESIDUAL BINDING TO gp120 (% OF CONTROL), 10.0 μM PEPTIDE [5]: 3.1 ± 0.7 % OF CONTROL
KWNDTLRQIVSKLKEQFKNK [Peptide 1989, gp160 peptide 341-360, HIV-1 MN]		96.6 ± 6.1	13.4 ± 1.8	88.5 ± 3.6	24.6 ± 6.6	98.3 ± 0.1	26.2 ± 0.8	
